Results as given in US8815266B2, “Peptide derivatives useful in the treatment, care or cleansing of the skin, mucosae, scalp or nails” (Lipotech, S.A., priority 2008, dated 2014).
Non-standard residues stand in square brackets, D forms with d. *: point of attachment. Palmitoyl = CCCCCCCCCCCCCCCC(=O)*; Ahx = NCCCCCC(=O)O

Key:
hBD2 promoter = test: Activation of the hBD2 promoter (luciferase activity assay) in a stable A549 cell line; format: cell-based, human
Protocol: Assay of activation of the hBD2 promoter in a stable cell line by the compounds of general formula (I) obtained in Example 5.
The A549 human epithelial cell line was cultured using RPMI-1640 medium supplemented with FBS and Penicillin-Streptomycin. It was routinely cultured by dividing the cultures twice a week at a 1:10 dilution using Trypsin-EDTA. 10^6 cells of the A549 line were seeded in a 60 mm disc treated with polylysine. After 24 h they were cotransfected with 10 μg of a gene construct formed by the hBD2 gene promoter followed by the luciferase protein gene (pGL3-hBD2promotor-Luc), and the pcDNA3B plasmid DNA containing the geneticin antibiotic resistance gene, at a 1:5 pcDNA3B.1/pGL3-hBD2promotor-Luc ratio. 25 μL of Lipofectamine™ 2000 were used for the transfection. After 24 h the selection was started with complete medium supplemented with the G418-Geneticin® antibiotic, the selection medium being renewed every 2 days. Different clones were isolated, which were characterized and selected based on the luciferase activity.
The selected stable lines were cultured using complete medium for the parental line supplemented with G418. They were routinely cultured by dividing the cultures twice a week at a 1:10 dilution using Trypsin-EDTA.
The capacity to activate the hBD2 promoter was determined by means of the luciferase activity assay since a transcriptional agent inducing hBD2 synthesis causes luciferase enzyme production by means of activating the hBD2 gene promoter contained in the pGL3-hBD2promotor-Luc construct, a luminescence increase being observed. The selected stable cell lines were seeded at 20,000 cells per plate. After 24 h the plates were washed and incubated for 24 h in modified RPMI-1640 medium without L-Isoleucine with different peptide derivatives at a concentration of 0.5 mM. LPS (100 μg/mL) and L-Isoleucine (25 μg/mL) were used as positive controls with the same treatment as the peptide derivatives. Once the incubation period had ended, the Steady-Glo Luciferase Assay System reagent (Promega Corp.) was added to the cells, following the protocol of the commercial company. The luminescent signal (ULAs/s) produced by the reaction between the luciferase and its substrate was quantified with a LUMIstar Galaxy plate luminometer (BMG Labtechnologies). Based on the values of luciferase activity (ULAs/s), standardized with the negative controls, the activation of the hBD2 promoter was determined.

hBD2 = test: Quantification of hBD2 secreted by human keratinocytes by ELISA; format: cell-based
Protocol: (§1) The quantification of the amount of mRNA secreted was carried out by means of a real-time quantitative RT-PCR assay. 3×10^6 cells of a human keratinocyte line were used, seeded in 25 cm^2 flasks. The cells were washed and incubated for 16 h-24 h with different peptide derivatives at a concentration of 1 mm or 0.25 mm in a volume of 3 mL of DMEM medium. LPS (100 μg/mL) and L-Ile (200 μg/mL) were used as positive controls. The supernatants of the cells were stored at −80° C., to analyze the secreted hBD2 protein level and the total RNA was extracted from the cells with the RNeasy kit (Quiagen) following the protocol of the commercial company.
Quantification of the hBD2 secreted in human keratinocytes after incubation with Ac-L-Glu-L-Met-L-Ala-L-Ile-OH (Ac-SEQ ID No. 3-OH), Ac-L-Arg-Phg-Phg-OH and Ac-L-Arg-Ahx-L-Ala-OH.
The amount of hBD2 secreted by human keratinocytes was quantified by means of an ELISA assay using the Human BD-2 ELISA Development commercial kit (Peprotech) from the supernatants of the cells coming from Example 15.
Based on the absorbance data obtained, the hBD2 protein level was calculated after the calibration with recombinant hBD2. The values of hBD2 obtained were standardized with respect to the values of the control assays (untreated cells).

hBD2 mRNA = test: Quantification of hBD2 mRNA in human keratinocytes by real-time quantitative RT-PCR; format: cell-based; details: 16 h-24 h
Protocol: Quantification of the hBD2 mRNA secreted in human keratinocytes after incubation with Ac-L-Glu-L-Met-L-Ala-L-Ile-OH (Ac-SEQ ID No. 3-OH), Ac-L-Arg-Phg-Phg-OH and Ac-L-Arg-Ahx-L-Ala-OH.
as §1
A retrotranscription reaction was carried out in a Mastercycler thermal cycler from 1 μg of total RNA of each sample, using the GeneAmp RNA PCR kit (Applied Biosystems) according to the protocol of the commercial company, and subsequently a real-time PCR was carried out by means of the assay with the SYBR Green I fluorophore in an ABI PRIS M 7700 Sequence Detector (Applied Biosystems).
The amount of mRNA was quantified by standardizing normalizing it with respect to the values of endogenous 18S ribosomal RNA. These values were in turn standardized with respect to the untreated cells and they were represented as the relative hBD2 mRNA level.

[1] = peptide derivative 0.5 mM, 24 h incubation, A549 pGL3-hBD2promotor-Luc stable line, standardized with negative controls (CONTROL 100%)
[2] = 0.25 mm peptide, supernatants of human keratinocytes from Example 15, standardized to untreated cells (CONTROL 100%)
[3] = 0.25 mM peptide, normalized to 18S rRNA and untreated cells (CONTROL 100%)

| Compound | LUMINESCENCE INCREASE (hBD2 promoter; [1]) | Relative hBD2 level (hBD2; [2]) | Relative hBD2 mRNA level (hBD2 mRNA; [3]) | also measured |
| --- | --- | --- | --- | --- |
| CC[C@H](C)[C@H](N)C(=O)O [L-Ile, L-Isoleucine, reference compound] | – | – | – | LUMINESCENCE INCREASE (hBD2 promoter; positive control L-Isoleucine 25 μg/mL, 24 h, A549 stable line, CONTROL 100%): 127%; Relative hBD2 level (hBD2; positive control L-Ile 200 μg/mL, keratinocyte supernatants, CONTROL 100%): 134%; Relative hBD2 mRNA level (hBD2 mRNA; positive control L-Ile 200 μg/mL, CONTROL 100%): 125% |
| Palm-L-Glu-L-Met-L-Ala-L-Ile-NH2 (Palmitoyl-EMAI-NH2; SMILES CCCCCCCCCCCCCCCC(=O)N[C@@H](CCC(=O)O)C(=O)N[C@@H](CCSC)C(=O)N[C@@H](C)C(=O)N[C@H](C(N)=O)[C@@H](C)CC) | 137% | – | – | – |
| H-L-Glu-L-Met-L-Ala-L-Ile-OH (H-EMAI-OH) | 125% | – | – | – |
| Ac-Arg-[Ahx]-Ala-OH | 137% | 126% | 126% | – |
| Ac-L-Glu-L-Met-L-Ala-L-Ile-OH (Ac-EMAI-OH) | 196% | – | – | Relative hBD2 level (hBD2; 1 mm peptide, supernatants of human keratinocytes from Example 15, standardized to untreated cells (CONTROL 100%)): 129%; Relative hBD2 mRNA level (hBD2 mRNA; 1 mm peptide, normalized to 18S rRNA and untreated cells (CONTROL 100%)): 323% |
| Ac-L-Arg-Phg-Phg-OH | 120% | 116% | 201% | – |
